Test results: ChEMBL document CHEMBL1201862, “PubChem BioAssay data set” (2004)
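Grown in 96-well plates, cells were treated for 48 hours with each compound at five concentrations. Insufficient inhibition: endpoint recorded as highest concentration tested. GI50 = concentration required for 50% inhibition of growth.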 The source made the active and inactive calls. Rule as the data show it: active = GI50 up to about 1.1 µM and inactive = higher.

Columns and labels:
Test in all cases: NCI-60 cell line screen, 48 h
RXF 393 = tested on: RXF 393
UACC-62 = tested on: UACC-62
SW-620 = tested on: SW-620
MDA-MB-435 = tested on: MDA-MB-435
OVCAR-4 = tested on: OVCAR-4
Hs-578T = tested on: Hs-578T
UO-31 = tested on: UO-31
A498 = tested on: A498
HOP-62 = tested on: HOP-62
Malme-3M = tested on: Malme-3M
OVCAR-5 = tested on: OVCAR-5
SK-OV-3 = tested on: SK-OV-3
EKVX = tested on: EKVX
HCT-15 = tested on: HCT-15
SNB-19 = tested on: SNB-19
CAKI-1 = tested on: CAKI-1
786-0 = tested on: 786-0
CCRF-CEM = tested on: CCRF-CEM
COLO 205 = tested on: COLO 205
SK-MEL-5 = tested on: SK-MEL-5

SMILES	GI50 (RXF 393)	GI50 (UACC-62)	GI50 (SW-620)	GI50 (MDA-MB-435)	GI50 (OVCAR-4)	GI50 (Hs-578T)	GI50 (UO-31)	GI50 (A498)	GI50 (HOP-62)	GI50 (Malme-3M)	GI50 (OVCAR-5)	GI50 (SK-OV-3)	GI50 (EKVX)	GI50 (HCT-15)	GI50 (SNB-19)	GI50 (CAKI-1)	GI50 (786-0)	GI50 (CCRF-CEM)	GI50 (COLO 205)	GI50 (SK-MEL-5)
c1ccc2sc(SCCSc3nc4ccccc4s3)nc2c1	> 100 µM (inactive)	> 100 µM (inactive)	> 100 µM (inactive)	> 100 µM (inactive)	52.1 µM (inactive)	> 100 µM (inactive)	> 100 µM (inactive)	> 100 µM (inactive)	> 100 µM (inactive)	> 100 µM (inactive)	> 100 µM (inactive)	> 100 µM (inactive)	> 100 µM (inactive)	> 100 µM	> 100 µM (inactive)	> 100 µM (inactive)	> 100 µM (inactive)	–	–	–
CN1c2ccccc2C(=O)NC12CCN(Cc1ccccc1)CC2	> 100 µM (inactive)	86.5 µM (inactive)	55.3 µM (inactive)	63.1 µM (inactive)	80.2 µM (inactive)	36.7 µM (inactive)	34.6 µM (inactive)	57.1 µM (inactive)	54.7 µM (inactive)	87.1 µM (inactive)	> 100 µM (inactive)	84.9 µM (inactive)	42.2 µM (inactive)	42.5 µM	27.5 µM (inactive)	–	62.4 µM (inactive)	35.6 µM (inactive)	35.4 µM (inactive)	54.8 µM (inactive)
O=[N+]([O-])C(/C=C(\Cl)n1nnc2ccccc21)=C(/Cl)n1nnc2ccccc21	> 100 µM (inactive)	> 100 µM (inactive)	–	> 100 µM (inactive)	> 100 µM (inactive)	> 100 µM (inactive)	> 100 µM (inactive)	> 100 µM (inactive)	> 100 µM (inactive)	> 100 µM (inactive)	> 100 µM (inactive)	> 100 µM (inactive)	> 100 µM (inactive)	> 100 µM	> 100 µM (inactive)	> 100 µM (inactive)	> 100 µM (inactive)	76.4 µM (inactive)	> 100 µM (inactive)	> 100 µM (inactive)
CSc1nc(C#N)c(N)n1C	> 100 µM (inactive)	> 100 µM (inactive)	> 100 µM (inactive)	> 100 µM (inactive)	> 100 µM (inactive)	> 100 µM (inactive)	> 100 µM (inactive)	> 100 µM (inactive)	> 100 µM (inactive)	> 100 µM (inactive)	> 100 µM (inactive)	> 100 µM (inactive)	> 100 µM (inactive)	> 100 µM	> 100 µM (inactive)	> 100 µM (inactive)	> 100 µM (inactive)	> 100 µM (inactive)	> 100 µM (inactive)	> 100 µM (inactive)
CC(C)(C)C1CCC2(CC1)CCN(CCCN1CCOCC1)CC2	27.4 µM (inactive)	8.91 µM (inactive)	> 42.8 µM (inactive)	28.2 µM (inactive)	> 93.8 µM (inactive)	35 µM (inactive)	48.3 µM (inactive)	34.7 µM (inactive)	> 41.5 µM (inactive)	18.5 µM (inactive)	> 60 µM (inactive)	> 100 µM (inactive)	> 96.4 µM (inactive)	22.3 µM	> 71.4 µM (inactive)	> 34.7 µM (inactive)	20.2 µM (inactive)	25.4 µM (inactive)	16.3 µM (inactive)	8.05 µM (inactive)
CC(=O)O[C@@H]1C(=O)N(c2ccccc2)[C@@H]1c1cc2ccccc2c2ccccc12	15 µM (inactive)	22.8 µM (inactive)	–	16.8 µM (inactive)	20.5 µM (inactive)	27.7 µM (inactive)	22.2 µM (inactive)	> 100 µM (inactive)	29.6 µM (inactive)	22.9 µM (inactive)	50 µM (inactive)	47.8 µM (inactive)	40.6 µM (inactive)	33.1 µM	73.3 µM (inactive)	5.25 µM (inactive)	42.2 µM (inactive)	25.6 µM (inactive)	16.7 µM (inactive)	23.2 µM (inactive)
Cn1c(CO)ccc1-c1ccc(-c2ccc[se]2)[se]1	3.07 µM (inactive)	–	0.0959 µM (active)	12.6 µM (inactive)	0.043 µM (active)	55 µM (inactive)	> 87.1 µM (inactive)	0.0349 µM (active)	20.7 µM (inactive)	> 72.1 µM (inactive)	–	13.6 µM (inactive)	35.1 µM (inactive)	35.9 µM	30.7 µM (inactive)	< 0.01 µM (active)	29.1 µM (inactive)	23.1 µM (inactive)	3.46 µM (inactive)	29.8 µM (inactive)
CC(=O)NC1C(Sc2ncn(C3OC(CO)C(O)C(O)C3NC(C)=O)n2)OC(CO)C(O)C1O (configuration not stated)	> 100 µM (inactive)	> 100 µM (inactive)	> 100 µM (inactive)	> 100 µM (inactive)	> 100 µM (inactive)	> 100 µM (inactive)	–	> 100 µM (inactive)	> 100 µM (inactive)	> 100 µM (inactive)	> 100 µM (inactive)	> 100 µM (inactive)	> 100 µM (inactive)	> 100 µM	> 100 µM (inactive)	> 100 µM (inactive)	> 100 µM (inactive)	29 µM (inactive)	> 100 µM (inactive)	> 100 µM (inactive)
COc1cc(/C=C2\CCC(C)C3C2=NN(C(C)=O)C3c2cc(OC)c(OC)c(OC)c2)cc(OC)c1OC (configuration not stated)	43.5 µM (inactive)	38.8 µM (inactive)	> 100 µM (inactive)	> 100 µM (inactive)	> 100 µM (inactive)	45.8 µM (inactive)	–	> 100 µM (inactive)	> 59.2 µM (inactive)	43.6 µM (inactive)	10.2 µM (inactive)	> 100 µM (inactive)	> 100 µM (inactive)	99.8 µM	> 100 µM (inactive)	14.2 µM (inactive)	> 79.6 µM (inactive)	> 100 µM (inactive)	> 100 µM (inactive)	> 57 µM (inactive)
COc1cc(Cn2c3c(c4cc(O)ccc42)Cc2ccccc2C3=O)cc(OC)c1	> 100 µM (inactive)	38.2 µM (inactive)	54.5 µM (inactive)	11.9 µM (inactive)	19.9 µM (inactive)	> 100 µM (inactive)	> 100 µM (inactive)	> 100 µM (inactive)	60.7 µM (inactive)	42.1 µM (inactive)	19.1 µM (inactive)	> 100 µM (inactive)	–	33.9 µM	> 100 µM (inactive)	32.7 µM (inactive)	58.3 µM (inactive)	22.6 µM (inactive)	28.9 µM (inactive)	35.7 µM (inactive)
O=c1[nH]c2ccc(Cl)cc2o1	> 100 µM (inactive)	> 100 µM (inactive)	> 100 µM (inactive)	> 100 µM (inactive)	> 100 µM (inactive)	> 100 µM (inactive)	> 100 µM (inactive)	> 100 µM (inactive)	> 100 µM (inactive)	> 100 µM (inactive)	> 100 µM (inactive)	> 100 µM (inactive)	26.7 µM (inactive)	> 100 µM	> 100 µM (inactive)	> 100 µM (inactive)	> 100 µM (inactive)	> 100 µM (inactive)	> 100 µM (inactive)	> 100 µM (inactive)
OC(c1cc2ccccc2[nH]1)C1(c2cccnc2)SCCCS1 (configuration not stated)	31.8 µM (inactive)	50.9 µM (inactive)	90.6 µM (inactive)	33.6 µM (inactive)	48.8 µM (inactive)	41.3 µM (inactive)	25.2 µM (inactive)	17.9 µM (inactive)	50.2 µM (inactive)	87.3 µM (inactive)	24.1 µM (inactive)	> 100 µM (inactive)	21.2 µM (inactive)	84.7 µM	> 100 µM (inactive)	> 100 µM (inactive)	97.3 µM (inactive)	–	61.4 µM (inactive)	43.6 µM (inactive)
CCn1sc2ccccc2c1=O	4.81 µM (inactive)	13.9 µM (inactive)	6.35 µM (inactive)	1.99 µM (inactive)	7.1 µM (inactive)	16.4 µM (inactive)	–	37.8 µM (inactive)	14.7 µM (inactive)	15.8 µM (inactive)	9.1 µM (inactive)	36 µM (inactive)	17.1 µM (inactive)	7.94 µM	11.3 µM (inactive)	3.43 µM (inactive)	2.34 µM (inactive)	1.87 µM (inactive)	9.55 µM (inactive)	9.84 µM (inactive)
CCC(=O)C(CCN1CCC(N2C(=O)C(CCC#N)c3ccccc32)CC1)(c1ccccc1)c1ccccc1 (configuration not stated)	3.37 µM (inactive)	15.6 µM (inactive)	11.8 µM (inactive)	4.85 µM (inactive)	–	9.57 µM (inactive)	9.53 µM (inactive)	23.2 µM (inactive)	17.9 µM (inactive)	12.1 µM (inactive)	22.3 µM (inactive)	15.5 µM (inactive)	–	13.1 µM	17.2 µM (inactive)	21.9 µM (inactive)	12.3 µM (inactive)	–	8.97 µM (inactive)	10.3 µM (inactive)
Cc1ccc(C)c(COCCOCn2cc(Br)c(N)nc2=O)c1	> 100 µM (inactive)	> 100 µM (inactive)	> 100 µM (inactive)	> 100 µM (inactive)	–	> 100 µM (inactive)	> 100 µM (inactive)	> 100 µM (inactive)	57.3 µM (inactive)	> 100 µM (inactive)	> 100 µM (inactive)	> 100 µM (inactive)	> 100 µM (inactive)	> 100 µM	> 100 µM (inactive)	> 100 µM (inactive)	> 100 µM (inactive)	> 100 µM (inactive)	> 100 µM (inactive)	–
